Where a name gives a salt, the structure may show the parent alone.
How the values were obtained:
Assay type in all cases: cell-based
[1] = molecular target: adenosine 2a receptor (Homo sapiens, UniProt P29274); assay: Agonist activity against adenosine 2a receptor (CHO cells, cAMP/SPAP reporter); conditions: CHO cells transfected with human receptor; basal cAMP via SPAP; mean of all the versions tested
Method: (§1) (1) Agonist activity against adenosine 2a, adenosine 1 and adenosine 3 receptor subtypes.
(§2) The effect of test compounds was determined by their effects on basal levels of cAMP (A2a) or on forskolin-enhanced cAMP (A1 and A3) as reflected by changes in levels of SPAP.

[2] = molecular target: T1, adenosine 1 receptor (Homo sapiens, UniProt P30542); assay: Agonist activity against adenosine 1 receptor (CHO cells, forskolin-enhanced cAMP/SPAP reporter); conditions: CHO cells transfected with human receptor; forskolin-enhanced cAMP via SPAP; mean of all the versions tested
T1 sequence (P30542 1-326): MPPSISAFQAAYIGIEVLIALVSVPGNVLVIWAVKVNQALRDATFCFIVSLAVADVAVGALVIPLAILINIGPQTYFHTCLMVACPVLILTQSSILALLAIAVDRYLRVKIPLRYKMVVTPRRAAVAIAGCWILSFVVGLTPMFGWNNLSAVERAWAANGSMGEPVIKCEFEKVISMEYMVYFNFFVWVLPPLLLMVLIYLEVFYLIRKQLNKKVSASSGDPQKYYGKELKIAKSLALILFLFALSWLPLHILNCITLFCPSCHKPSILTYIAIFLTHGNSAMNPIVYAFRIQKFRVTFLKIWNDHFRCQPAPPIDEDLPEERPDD
Method: as §1, §2

[3] = molecular target: T2, adenosine 3 receptor (Homo sapiens, UniProt P0DMS8); assay: Agonist activity against adenosine 3 receptor (CHO cells, forskolin-enhanced cAMP/SPAP reporter); conditions: CHO cells transfected with human receptor; forskolin-enhanced cAMP via SPAP; mean of all the versions tested
T2 sequence (P0DMS8 1-318): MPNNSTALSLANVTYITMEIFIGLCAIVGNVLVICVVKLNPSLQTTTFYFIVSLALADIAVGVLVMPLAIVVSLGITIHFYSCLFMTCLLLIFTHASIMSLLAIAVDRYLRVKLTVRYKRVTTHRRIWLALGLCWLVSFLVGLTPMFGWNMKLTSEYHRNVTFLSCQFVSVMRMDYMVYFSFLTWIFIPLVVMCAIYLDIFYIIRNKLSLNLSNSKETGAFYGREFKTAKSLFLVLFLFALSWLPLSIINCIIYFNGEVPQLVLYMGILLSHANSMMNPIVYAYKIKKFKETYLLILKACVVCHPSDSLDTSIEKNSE
Method: as §1, §2

Sequence of adenosine 2a receptor (P29274 whole entry): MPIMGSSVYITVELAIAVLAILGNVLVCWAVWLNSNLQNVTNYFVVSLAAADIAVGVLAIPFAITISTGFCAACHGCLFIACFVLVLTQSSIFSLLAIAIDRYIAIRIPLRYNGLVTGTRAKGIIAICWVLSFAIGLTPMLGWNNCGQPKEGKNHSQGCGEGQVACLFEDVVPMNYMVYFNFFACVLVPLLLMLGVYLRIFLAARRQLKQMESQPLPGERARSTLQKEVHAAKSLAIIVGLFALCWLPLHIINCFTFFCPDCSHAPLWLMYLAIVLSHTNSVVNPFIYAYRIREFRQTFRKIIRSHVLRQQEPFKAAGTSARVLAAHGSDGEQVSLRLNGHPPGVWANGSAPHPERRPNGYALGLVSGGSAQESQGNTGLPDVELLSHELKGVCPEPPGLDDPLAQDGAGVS

Molecule	A2a EC50 as a ratio of that of NECA [1]	A1 EC50 as a ratio of that of NECA [2]	A3 EC50 as a ratio of that of NECA [3]
CC(C)n1nnc([C@H]2O[C@@H](n3cnc4c(N[C@H](CO)Cc5ccccc5)nc(N[C@H]5CCNC5)nc43)[C@H](O)[C@@H]2O)n1.O=CO.O=CO [Example 64, (2R,3R,4S,5R)-2-[6-(1S-Hydroxymethyl-2-phenyl-ethylamino)-2-(pyrrolidin-3S-ylamino)-purin-9-yl]-5-(2-isopropyl-2H-tetrazol-5-yl)-tetrahydro-furan-3,4-diol bis(Formate)]	2.54	21.30	>326
COc1ccc(CCNc2nc(N)c3ncn([C@@H]4O[C@H](c5nnn(C)n5)[C@@H](O)[C@H]4O)c3n2)cc1OC.O=CO [Example 38, (2R,3R,4S,5R)-2-{6-Amino-2-[2-(3,4-dimethoxy-phenyl)-ethylamino]-purin-9-yl}-5-(2-methyl-2H-tetrazol-5-yl)-tetrahydro-furan-3,4-diol Formate]	0.13	946	>315
CCn1nnc([C@H]2O[C@@H](n3cnc4c(N)nc(NCCNc5ccccn5)nc43)[C@H](O)[C@@H]2O)n1.O=C(O)C(F)(F)F [Example 55, (2R,3R,4S,5R)-2-{6-Amino-2-[2-(pyridin-2-ylamino)-ethylamino)-purin-9-yl}-5-(2-ethyl-2H-tetrazol-5-yl)-tetrahydro-furan-3,4-diol Trifluoroacetate]	5.77	1136.00	>435
COc1ccc(CCNc2nc(N)c3ncn([C@@H]4O[C@H](c5nnn(C(C)C)n5)[C@@H](O)[C@H]4O)c3n2)cc1OC.O=CO [Example 42, (2R,3R,4S,5R)-2-{6-Amino-2-[2-(3,4-dimethoxy-phenyl)-ethylamino]-purin-9-yl}-5-(2-isopropyl-2H-tetrazol-5-yl)-tetrahydro-furan-3,4-diol Formate]	0.63	414.9	>413
CCn1nnc([C@H]2O[C@@H](n3cnc4c(N)nc(NCCc5ccc(O)cc5)nc43)[C@H](O)[C@@H]2O)n1.O=CO [Example 16, (2R,3R,4S,5R)-2-{6-Amino-2-[2-(4-hydroxy-phenyl)-ethylamino]-purin-9-yl}-5-(2-ethyl-2H-tetrazol-5-yl)-tetrahydro-furan-3,4-diol Formate]	0.3	516.4	>209
CC(=O)O.CCn1nnc([C@H]2O[C@@H](n3cnc4c(NCCC(C)(C)C)nc(NCCc5cn(C)cn5)nc43)[C@H](O)[C@@H]2O)n1 [Example 9, (2R,3R,4S,5R)-2-{6-(3,3-Dimethyl-butylamino)-2-[2-(1-methyl-1H-imidazol-4-yl)-ethylamino]-purin-9-yl}-5-(2-ethyl-2H-tetrazol-5-yl)-tetrahydro-furan-3,4-diol Acetate]	0.45	377	>42
CCn1nnc([C@H]2O[C@@H](n3cnc4c(N)nc(NCCc5ccc(OC)cc5)nc43)[C@H](O)[C@@H]2O)n1.O=CO [Example 18, (2R,3R,4S,5R)-2-{6-Amino-2-[2-(4-methoxy-phenyl)-ethylamino]-purin-9-yl}-5-(2-ethyl-2H-tetrazol-5-yl)-tetrahydro-furan-3,4-diol Formate]	0.36	136.7	>223
CCn1nnc([C@H]2O[C@@H](n3cnc4c(N)nc(Nc5ccc(F)cc5)nc43)[C@H](O)[C@@H]2O)n1.O=C(O)C(F)(F)F [Example 13, (2R,3R,4S,5R)-2-[6-Amino-2-(4-fluoro-phenylamino)-purin-9-yl]-5-(2-ethyl-2H-tetrazol-5-yl)-tetrahydro-furan-3,4-diol Trifluoroacetate]	0.64	266.9	>232

Second part, the molecule after the results:

A2a EC50 as a ratio of that of NECA [1]	A1 EC50 as a ratio of that of NECA [2]	A3 EC50 as a ratio of that of NECA [3]	Molecule
6.60	515.30	>148	CCn1nnc(C2OC(n3cnc4c(NCCN5CCCCC5)nc(NC(CO)Cc5ccccc5)nc43)C(O)C2O)n1 [Example 69, (2R,3S,4R,5R)-2-(2-Ethyl-2H-tetrazol-5-yl)-5-[2-(1S-hydroxymethyl-2-phenyl-ethylamino)-6-(2-piperidin-1-yl-ethylamino)-purin-9-yl]-tetrahydro-furan-3,4-diol Formate]
2.39	385.90	>411	Cn1nnc(C2OC(n3cnc4c(NCC(c5ccccc5)c5ccccc5)nc(NC5CCNC5)nc43)C(O)C2O)n1 [Example 94, (2R,3R,4S,5R)-2-[6-(2,2-Diphenyl-ethylamino)-2-(pyrrolidin-3R-ylamino)-purin-9-yl]-5-(2-methyl-2H-tetrazol-5-yl)-tetrahydro-furan-3,4-diol Diformate]
2.40	165.30	>155	CCn1nnc(C2OC(n3cnc4c(NCCc5ccccc5)nc(NC(CO)Cc5ccccc5)nc43)C(O)C2O)n1 [Example 79, (2R,3S,4R,5R)-2-(2-Ethyl-2H-tetrazol-5-yl)-5-[2-(1S-hydroxymethyl-2-phenyl-ethylamino)-6-phenethylamino-purin-9-yl]-tetrahydro-furan-3,4-diol Formate]
2.22	>9363.00	>243	CCC(CC)Nc1nc(NCCc2ccccn2)nc2c1ncn2C1OC(c2nnn(C)n2)C(O)C1O.O=CO.O=CO [Example 89, (2R,3R,4S,5R)-2-[6-(1-Ethyl-propylamino)-2-(2-pyridin-2-yl-ethylamino)-purin-9-yl]-5-(2-methyl-2H-tetrazol-5-yl)-tetrahydro-furan-3,4-diol Diformate]
2.93	215.30	>155	CCn1nnc(C2OC(n3cnc4c(NCc5cccc(I)c5)nc(NC5CCNC5)nc43)C(O)C2O)n1 [Example 76, (2R,3S,4R,5R)-2-(2-Ethyl-2H-tetrazol-5-yl)-5-[6-(3-iodo-benzylamino)-2-(pyrrolidin-3S-ylamino)-purin-9-yl]-tetrahydro-furan-3,4-diol bis(Formate)]
2.41	245.90	>267	CCC(CC)Nc1nc(NCCN2CCCC2)nc2c1ncn2C1OC(c2nnn(C)n2)C(O)C1O.O=CO.O=CO [Example 90, (2R,3R,4S,5R)-2-[6-(1-Ethyl-propylamino)-2-(2-pyrrolidin-1-yl-ethylamino)-purin-9-yl]-5-(2-methyl-2H-tetrazol-5-yl)-tetrahydro-furan-3,4-diol Diformate]
2.10	4687.00	>153	Cn1nnc(C2OC(n3cnc4c(NCC(c5ccccc5)c5ccccc5)nc(NC(CO)Cc5ccccc5)nc43)C(O)C2O)n1 [Example 95, (2R,3R,4S,5R)-2-[6-(2,2-Diphenyl-ethylamino)-2-(1S-hydroxymethyl-2-phenyl-ethylamino)-purin-9-yl]-5-(2-methyl-2H-tetrazol-5-yl)-tetrahydro-furan-3,4-diol Formate]
2.92	298.50	>315	Cn1nnc(C2OC(n3cnc4c(NC(CO)Cc5ccccc5)nc(NCCN5CCCC5)nc43)C(O)C2O)n1 [Example 111, (2R,3R,4S,5R)-2-[6-(1S-Hydroxymethyl-2-phenyl-ethylamino)-2-(2-pyrrolidin-1-yl-ethylamino)-purin-9-yl]-5-(2-methyl-2H-tetrazol-5-yl)-tetrahydro-furan-3,4-diol bis(Formate)]
4.00	31.00	>181	(2R,3S,4R,5R)-2-(2-Ethyl-2H-tetrazol-5-yl)-5-[6-(1S-hydroxymethyl-2-ethylamino)-2-(2-morpholin-4-yl-ethylamino)-purin-9-yl]-tetrahydro-furan-3,4-diol Formate [Example 78]
1.27	89.10	>233	Cn1nnc(C2OC(n3cnc4c(NC(CO)Cc5ccccc5)nc(NCCN5CCCCC5)nc43)C(O)C2O)n1 [Example 107, (2R,3R,4S,5R)-2-[6-(1S-Hydroxymethyl-2-phenyl-ethylamino)-2-(2-piperidin-1-yl-ethylamino)-purin-9-yl]-5-(2-methyl-2H-tetrazol-5-yl)-tetrahydro-furan-3,4-diol bis(Formate)]

— US6528494B2 (priority 1996, dated 2003)
